Data on two substances can be found in publication PMC12684325, “SiR‐XActin: A Fluorescent Probe for Imaging Actin Dynamics in Live Cells” (Angewandte Chemie (International Ed. in English), 2025).

In this test the test system is T1, F-actin.
T1 construct: gene ACTB; F-actin filaments
The experiment in a line: microscopy-based apparent affinity measurement for F-actin (fluorescent probe; fixed-cell staining).

Take SiR-actin [compound 2]: the Kd was 6 nM. On to SiR-XActin [compound 8], for which the Kd was determined as 557 nM.
